Laboratory results from the NIST ThermoML archive (doi:10.1016/j.fluid.2015.03.030).

Experiment: Boiling temperature at pressure P
Conditions: Liquid, Ebulliometric method (Recirculating still)

O=C1OC(=O)c2cc(Cl)ccc21 [4-chlorophthalic anhydride]
Conditions | Boiling temperature at pressure P [°C]
3.412 kPa | 174.12
4.468 kPa | 181.16
5.15 kPa | 184.99
5.626 kPa | 187.38
6.455 kPa | 191.23
7.207 kPa | 194.4
8.268 kPa | 198.19
9.221 kPa | 201.31
10.66 kPa | 205.62
11.74 kPa | 208.48
12.99 kPa | 211.60
14.48 kPa | 214.97
15.93 kPa | 217.97
17.17 kPa | 220.36
18.59 kPa | 222.89
20.24 kPa | 225.72
21.71 kPa | 228.1
23.52 kPa | 230.67
25.37 kPa | 233.31
27.38 kPa | 235.90
29.59 kPa | 238.67
31.99 kPa | 241.41
34.47 kPa | 244.18
37.26 kPa | 247.0
40.2 kPa | 249.76
43.82 kPa | 252.96
46.79 kPa | 255.48
50.5 kPa | 258.40
54.42 kPa | 261.32
58.75 kPa | 264.30
63.31 kPa | 267.29
68.3 kPa | 270.4
72.98 kPa | 273.1
79.29 kPa | 276.50
86.41 kPa | 280.09
92.12 kPa | 282.82
99.1 kPa | 286.02
101 kPa | 287

O=C1OC(=O)c2cc(F)ccc21 [5-fluoro-1,3-isobenzofurandione]
Conditions | Boiling temperature at pressure P [°C]
3.549 kPa | 153.68
4.301 kPa | 158.39
5.517 kPa | 164.86
6.582 kPa | 169.60
7.86 kPa | 174.33
8.973 kPa | 178.04
10.5 kPa | 182.54
12.25 kPa | 187.07
13.2 kPa | 189.31
15.16 kPa | 193.52
17.63 kPa | 198.20
18.81 kPa | 200.23
21.16 kPa | 204.02
23.05 kPa | 206.79
26 kPa | 210.78
31.21 kPa | 216.91
36.41 kPa | 222.26
40.95 kPa | 226.48
45.02 kPa | 229.90
47.3 kPa | 231.69
48.21 kPa | 232.43
51.3 kPa | 234.71
53.29 kPa | 236.12
55.87 kPa | 237.93
57.3 kPa | 238.87
59.62 kPa | 240.39
65.49 kPa | 244.02
69.16 kPa | 246.14
73.58 kPa | 248.63
78.49 kPa | 251.18
85.68 kPa | 254.76
90.57 kPa | 257.03
93.83 kPa | 258.51
96.02 kPa | 259.49
97.24 kPa | 260.02
101.21 kPa | 261.70
